The record followed here is patent US20250059205A1, “Heterocyclic Compounds and Methods of Use” (AMGEN INC., priority 2021, published 2025).

The test system of assay [1] is Phosphorylation of ERK1/2 in AsPC-1 cells. Kind of assay: Phospho-ERK1/2 MSD Assay (AsPC-1 cells). Type of assay: cell-based. The note with it: Homo sapiens, ASPC1, 2 h, 2 hours treatment, read-out: p-ERK (AsPC-1 cells) IC50. In a few lines:
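Read-out: MSD electrochemiluminescent detection of phosphorylated ERK1/2 in whole-cell lysates, fitted to a 4-parameter logistic curve for IC50. Prior to lysis, AsPC-1 cells (25,000 per well) received a 2 h compound dose-response at 37 °C.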

The test system of assay [2] is Phosphorylation of ERK1/2 in A-427 cells. The assay can be described thus: Phospho-ERK1/2 MSD Assay (A-427 cells). The note with it: Homo sapiens, A-427, 2 h, 2 h treatment, read-out: p-ERK (A427 cells) IC50. Type of assay: cell-based. In a few lines:
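ERK1/2 phosphorylation measured by Meso Scale whole-cell lysate assay after A-427 cells were exposed to a titration of compound for 2 h at 37 °C.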

For assay [3], the target named is GDP-bound KRAS protein (aa 1-169), containing both G12D and C118A amino acid substitutions (Homo sapiens, UniProt P01116, C118A/G12D). Kind of assay: KRAS G12D Coupled Nucleotide Exchange Assay. The note with it: 2 h compound pre-incubation. Type of assay: biochemical. How it is done:
Following compound pre-incubation, purified SOS protein (aa 564-1049) and GTP (Roche 10106399001) were added to the assay wells and incubated for an additional 30 min. […] The assay plates were then read on a PerkinElmer EnVision Multilabel Reader, using AlphaScreen® technology, and data were analyzed using a 4-parameter logistic model to calculate IC50 values.

For assay [4], the target named is His-tagged KRAS G12D protein (Homo sapiens, UniProt P01116, G12D). Kind of assay: KRAS G12D TR-FRET Assay. The format is binding. (Time-resolved FRET reads energy transfer from a long-lived donor to a nearby acceptor.)
His-tagged KRAS G12D protein, sequence (P01116 1-188 isoform P01116-2 G12D): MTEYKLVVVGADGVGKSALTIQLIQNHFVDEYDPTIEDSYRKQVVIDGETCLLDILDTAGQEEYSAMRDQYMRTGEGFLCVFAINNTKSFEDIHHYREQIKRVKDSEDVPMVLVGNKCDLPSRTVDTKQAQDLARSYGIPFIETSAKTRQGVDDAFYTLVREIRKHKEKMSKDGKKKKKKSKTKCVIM

GDP-bound KRAS protein (aa 1-169), containing both G12D and C118A amino acid substitutions, sequence (P01116 1-169 isoform P01116-2 G12D/C118A): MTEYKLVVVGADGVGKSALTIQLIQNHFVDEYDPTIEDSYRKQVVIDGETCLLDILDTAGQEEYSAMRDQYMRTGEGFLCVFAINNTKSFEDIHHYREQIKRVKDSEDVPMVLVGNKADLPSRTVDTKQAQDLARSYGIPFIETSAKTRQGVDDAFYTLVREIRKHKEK

Broadly, the IC50 is the midpoint of a concentration-inhibition curve. Consider `Cc1c(-c2cc(O)cc3ccc(F)c(F)c23)ccc2c(N3C[C@@H]4CC[C@H]3CN4)nc(OC[C@@]34CCCN3C[C@H](F)C4)nc12` [Example 166, 4-(4-((1S,4S)-2,5-diazabicyclo[2.2.2]octan-2-yl)-2-(((2R,7aS)-2-fluorotetrahydro-1H-pyrrolizin-7a(5H)-yl)methoxy)-8-methylquinazolin-7-yl)-5,6-difluoronaphthalen-2-ol], for which the IC50 in assay [1] was determined as 1530 nM; in assay [2], 4200 nM; in assay [4], 94 nM. In assay [3], the “Avg 2 h Coupled Exchange IC50” value was found to be 82 nM.

As for `CCc1cccc2cc(O)cc(-c3ccc4c(N5C[C@H]6CC[C@@H](C5)N6)nc(OC[C@@]56CCCN5C[C@H](F)C6)nc4c3C)c12` [Example 168, 4-(4-((1R,5S)-3,8-diazabicyclo[3.2.1]octan-3-yl)-2-(((2R,7aS)-2-fluorotetrahydro-1H-pyrrolizin-7a(5H)-yl)methoxy)-8-methylquinazolin-7-yl)-5-ethylnaphthalen-2-ol], the results for the half-maximal inhibitory concentration (IC50) in assay [1], in assay [2] and in assay [4] were 243 nM, 78 nM and 4 nM, respectively. Further, the “Avg 2 h Coupled Exchange IC50” value in assay [3] came out at 8 nM.

Take `CCc1cccc2cc(O)cc(-c3ccc4c(N5C[C@H]6CC[C@@H](C5)N6)nc(OC[C@@]56CCCN5C[C@H](F)C6)nc4c3F)c12` [Example 169, 4-(4-((1R,5S)-3,8-diazabicyclo[3.2.1]octan-3-yl)-8-fluoro-2-(((2R,7aS)-2-fluorotetrahydro-1H-pyrrolizin-7a(5H)-yl)methoxy)quinazolin-7-yl)-5-ethylnaphthalen-2-ol]: the half-inhibitory concentration (IC50) in assay [1] was determined as 72 nM; in assay [2], 9 nM; in assay [4] it was 5 nM. Besides, the “Avg 2 h Coupled Exchange IC50” value in assay [3] is 5 nM.

As to `CCc1cccc2cc(O)cc(-c3c(Cl)cc4c(N5C[C@H]6CC[C@@H](C5)N6)nc(OC[C@@]56CCCN5C[C@H](F)C6)nc4c3F)c12` [Example 170, 4-(4-((1R,5S)-3,8-diazabicyclo[3.2.1]octan-3-yl)-6-chloro-8-fluoro-2-(((2R,7aS)-2-fluorotetrahydro-1H-pyrrolizin-7a(5H)-yl)methoxy)quinazolin-7-yl)-5-ethylnaphthalen-2-ol], the half-inhibitory concentration (IC50) in assay [1] stood at 126 nM; in assay [2] it was 86 nM; in assay [4], 3 nM. Further, the “Avg 2 h Coupled Exchange IC50” value in assay [3] is 3 nM.

On to `CCc1cccc2cc(O)cc(-c3cc4nc(OC[C@@]56CCCN5C[C@H](F)C6)nc(N5C[C@H]6CC[C@@H](C5)N6)c4cc3F)c12` [Example 171, 4-(4-((1R,5S)-3,8-diazabicyclo[3.2.1]octan-3-yl)-6-fluoro-2-(((2R,7aS)-2-fluorotetrahydro-1H-pyrrolizin-7a(5H)-yl)methoxy)quinazolin-7-yl)-5-ethylnaphthalen-2-ol], for which the IC50 in assay [1] worked out at 169 nM; in assay [2] it was 42 nM; in assay [4] it was 6 nM. For the same compound, in assay [3], the “Avg 2 h Coupled Exchange IC50” value is 3 nM.

`CCc1c(F)ccc2cc(O)cc(-c3c(F)cc4c(N5[C@@H]6CCC[C@H]5CNC6)nc(OC[C@@]56CCCN5C[C@H](F)C6)nc4c3F)c12` [Example 172, 4-(4-((1R,5S)-3,9-diazabicyclo[3.3.1]nonan-9-yl)-6,8-difluoro-2-(((2R,7aS)-2-fluorotetrahydro-1H-pyrrolizin-7a(5H)-yl)methoxy)quinazolin-7-yl)-5-ethyl-6-fluoronaphthalen-2-ol]: the concentration for half-maximal inhibition (IC50) in assay [1] was 2920 nM; in assay [2], 5430 nM; in assay [4] it was 85 nM. In assay [3], the “Avg 2 h Coupled Exchange IC50” value is 36 nM.

Turning to `Oc1cc(-c2cc3nc(OC[C@@]45CCCN4C[C@H](F)C5)nc(N4C[C@@H]5CC[C@H]4CN5)c3cc2F)c2c(F)c(F)ccc2c1` [Example 173, 4-(4-((1S,4S)-2,5-diazabicyclo[2.2.2]octan-2-yl)-6-fluoro-2-(((2R,7aS)-2-fluorotetrahydro-1H-pyrrolizin-7a(5H)-yl)methoxy)quinazolin-7-yl)-5,6-difluoronaphthalen-2-ol], the 50% inhibitory concentration (IC50) in assay [1] was found to be 366 nM; in assay [2] it was 153 nM; in assay [4], 2 nM. The “Avg 2 h Coupled Exchange IC50” value in assay [3] worked out at 3 nM.

Regarding `CCc1c(F)ccc2cc(O)cc(-c3cc4nc(OC[C@@]56CCCN5C[C@H](F)C6)nc(N5C[C@@H]6CC[C@H]5CN6)c4cc3F)c12` [Example 174, 4-(4-((1S,4S)-2,5-diazabicyclo[2.2.2]octan-2-yl)-6-fluoro-2-(((2R,7aS)-2-fluorotetrahydro-1H-pyrrolizin-7a(5H)-yl)methoxy)quinazolin-7-yl)-5-ethyl-6-fluoronaphthalen-2-ol], the IC50 in assay [1] worked out at 64 nM; in assay [2], 57 nM; in assay [4], 4 nM. In addition, the “Avg 2 h Coupled Exchange IC50” value in assay [3] worked out at 5 nM.

`C#Cc1cccc2cc(O)cc(-c3c(F)cc4c(N5C[C@@H]6CC[C@H]5CN6)nc(OC[C@@]56CCCN5C[C@H](F)C6)nc4c3F)c12` [Example 180, 4-(4-((1S,4S)-2,5-diazabicyclo[2.2.2]octan-2-yl)-6,8-difluoro-2-(((2R,7aS)-2-fluorotetrahydro-1H-pyrrolizin-7a(5H)-yl)methoxy)quinazolin-7-yl)-5-ethynylnaphthalen-2-ol]: the figures for the IC50 in assay [1], in assay [2] and in assay [4] were 18 nM, 3 nM and 3 nM, respectively. In addition, the “Avg 2 h Coupled Exchange IC50” value in assay [3] was determined as 4 nM.

Turning to `C#Cc1c(F)ccc2cc(O)cc(-c3cc4nc(OC[C@@]56CCCN5C[C@H](F)C6)nc(N5C[C@H]6CC[C@@H](C5)N6)c4cc3F)c12` [Example 181, 4-(4-((1R,5S)-3,8-diazabicyclo[3.2.1]octan-3-yl)-6-fluoro-2-(((2R,7aS)-2-fluorotetrahydro-1H-pyrrolizin-7a(5H)-yl)methoxy)quinazolin-7-yl)-5-ethynyl-6-fluoronaphthalen-2-ol], the half-maximal inhibitory concentration (IC50) in assay [1] was 18 nM; in assay [2], 3 nM; in assay [4] it was 1 nM. Besides, in assay [3], the “Avg 2 h Coupled Exchange IC50” value was determined as 1 nM.

Regarding `C#Cc1cccc2cc(O)cc(-c3cc4nc(OC[C@@]56CCCN5C[C@H](F)C6)nc(N5C[C@H]6CC[C@@H](C5)N6)c4cc3F)c12` [Example 182, 4-(4-((1R,5S)-3,8-diazabicyclo[3.2.1]octan-3-yl)-6-fluoro-2-(((2R,7aS)-2-fluorotetrahydro-1H-pyrrolizin-7a(5H)-yl)methoxy)quinazolin-7-yl)-5-ethynylnaphthalen-2-ol], the half-inhibitory concentration (IC50) in assay [1] was 33 nM; in assay [2] it was 4 nM; in assay [4], 1 nM. The “Avg 2 h Coupled Exchange IC50” value in assay [3] worked out at 2 nM.

With `C#Cc1cccc2cc(O)cc(-c3c(F)cc4c(N5C[C@H]6C[C@@H](C5)N6)nc(OC[C@@]56CCCN5C[C@H](F)C6)nc4c3F)c12` [Example 183, 4-(4-((1R,5S)-3,6-diazabicyclo[3.1.1]heptan-3-yl)-6,8-difluoro-2-(((2R,7aS)-2-fluorotetrahydro-1H-pyrrolizin-7a(5H)-yl)methoxy)quinazolin-7-yl)-5-ethynylnaphthalen-2-ol], the IC50 in assay [1] turned out to be 5400 nM; in assay [2] it was 1480 nM; in assay [4], 2 nM. Further, the “Avg 2 h Coupled Exchange IC50” value in assay [3] came to 4 nM.

As to `C#Cc1cccc2cc(O)cc(-c3ccc4c(N5C[C@H]6CC[C@@H](C5)N6)nc(OC[C@@]56CCCN5C[C@H](F)C6)nc4c3F)c12` [Example 185, 4-(4-((1R,5S)-3,8-diazabicyclo[3.2.1]octan-3-yl)-8-fluoro-2-(((2R,7aS)-2-fluorotetrahydro-1H-pyrrolizin-7a(5H)-yl)methoxy)quinazolin-7-yl)-5-ethynylnaphthalen-2-ol], the half-maximal inhibitory concentration (IC50) in assay [1] came out at 16 nM; in assay [2], 1 nM; in assay [4], 1 nM. For the same compound, in assay [3], the “Avg 2 h Coupled Exchange IC50” value was 1 nM.

Turning to `C#Cc1c(F)ccc2cc(O)cc(-c3ccc4c(N5C[C@H]6CC[C@@H](C5)N6)nc(OC[C@@]56CCCN5C[C@H](F)C6)nc4c3F)c12` [Example 186, 4-(4-((1R,5S)-3,8-diazabicyclo[3.2.1]octan-3-yl)-8-fluoro-2-(((2R,7aS)-2-fluorotetrahydro-1H-pyrrolizin-7a(5H)-yl)methoxy)quinazolin-7-yl)-5-ethynyl-6-fluoronaphthalen-2-ol], the IC50 in assay [1] was 5 nM; in assay [2], 1 nM; in assay [4], 3 nM. Also, the “Avg 2 h Coupled Exchange IC50” value in assay [3] turned out to be 3 nM.

Consider `C#Cc1c(F)ccc2cc(O)cc(-c3ccc4c(N5[C@@H]6CC[C@H]5CNC6)nc(OC[C@@]56CCCN5C[C@H](F)C6)nc4c3F)c12` [Example 187, 4-(4-((1R,5S)-3,8-diazabicyclo[3.2.1]octan-8-yl)-8-fluoro-2-(((2R,7aS)-2-fluorotetrahydro-1H-pyrrolizin-7a(5H)-yl)methoxy)quinazolin-7-yl)-5-ethynyl-6-fluoronaphthalen-2-ol], for which the IC50 in assay [1] is 16 nM; in assay [2], 5 nM; in assay [4], 2 nM. In assay [3], the “Avg 2 h Coupled Exchange IC50” value amounted to 1 nM.
